Laboratory results from publication PMC8141533, “Structural and biochemical analysis of human ADP-ribosyl-acceptor hydrolase 3 reveals the basis of metal selectivity and different roles for the two magnesium ions” (The Journal of Biological Chemistry, 2021).
Where a chain is given by its changes, count along the chain named. Entries after “also recorded” stand apart in the source; their conditions may differ.

How the values were obtained:
[1] = biological target: T1, ARH3^D314A (Homo sapiens, UniProt Q9NX46, D314A); assay: Isothermal titration calorimetry (ITC) of ADPR binding to ARH3^D314A
T1 construct: His6 with PreScission protease cleavage site (N); made in house
T1 sequence (Q9NX46 1-363 D314A): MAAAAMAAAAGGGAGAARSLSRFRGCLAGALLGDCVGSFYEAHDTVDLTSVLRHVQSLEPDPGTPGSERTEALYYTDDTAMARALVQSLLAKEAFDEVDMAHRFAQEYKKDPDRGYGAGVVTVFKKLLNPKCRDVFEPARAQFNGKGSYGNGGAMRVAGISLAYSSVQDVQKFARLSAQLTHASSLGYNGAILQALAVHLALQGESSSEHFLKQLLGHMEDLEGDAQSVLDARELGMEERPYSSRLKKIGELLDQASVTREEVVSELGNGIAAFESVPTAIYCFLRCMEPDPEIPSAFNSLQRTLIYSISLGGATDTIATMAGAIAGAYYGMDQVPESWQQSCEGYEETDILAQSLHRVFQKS
Protocol: (§1) ITC experiments were performed at 25 °C in a buffer containing 150 mM NaCl, 100 mM Tris at pH 7.5, and 5 mM divalent metals (MgCl2, MnCl2, and CaCl2) or EDTA (Sigma–Aldrich). The WT or mutants of ARH3 were placed in a cell at 50 μM concentration, and ADPR was placed in the injection syringe at 660 μM concentration. Overall, 26 injections (10 μl per injection except for the first sample [5 μl]) were administered with an interval of 5 min between peaks to allow the baseline to be stabilized. […] The obtained plots were fitted with a single-site binding model in the Origin software package (MicroCal, Inc).

[2] = biological target: T2, ARH3^WT (Homo sapiens, UniProt Q9NX46); assay: Isothermal titration calorimetry (ITC) of ADPR binding to ARH3^WT; settings: for Kd / N (sites) / ΔG / ΔH / −TΔS: 25 °C, pH 7.5
T2 construct: we determined the structure of full-length ARH3 in complex with ADPR and Ca^2+; made in house
T2 sequence (Q9NX46 1-363): T1 sequence (Q9NX46 1-363 D314A) with A314D
Protocol: as §1

[3] = biological target: T3, ARH3^D77A (Homo sapiens, UniProt Q9NX46, D77A); assay: Isothermal titration calorimetry (ITC) of ADPR binding to ARH3^D77A
T3 construct: His6 with PreScission protease cleavage site (N); made in house
T3 sequence (Q9NX46 1-363 D77A): T1 sequence (Q9NX46 1-363 D314A) with D77A, A314D
Protocol: as §1

[4] = biological target: T4, ARH3 (Homo sapiens, UniProt Q9NX46); assay: Gel-based PAR turnover assay (PARylated PARP1C substrate); format: biochemical; settings: for effect on PAR hydrolysis by ARH3: WT ARH3 2 μM, 5 mM EDTA or Ca^2+, PARylated PARP1C, 1 h, 37 °C
T4 construct: we determined the structure of full-length ARH3 in complex with ADPR and Ca^2+; made in house
T4 sequence (Q9NX46 1-363): T1 sequence (Q9NX46 1-363 D314A) with A314D
Protocol: A gel-based PAR-turnover assay was performed to evaluate the enzymatic activity of ARH3^WT, ARH3^D77A, ARH3^D78A, ARH3^D314A, and ARH3^D316A, as described previously ([14], [40]). Briefly, 2 μM of the catalytic domain of human PARP1 (PARP1C; residues 375–1014) was auto-PARylated at 37 °C for 30 min in the presence of 2 μM DBD of PARP1 (residues 1–374), 2 μM double-stranded DNA, and 400 μM β-NAD^+ (Sigma) in a buffer containing 100 mM NaCl, 50 mM Tris (pH 7.5), 10 mM MgCl2, and 2 mM DTT. ARH3 proteins (in the presence of 5 mM EDTA, Mg^2+, or Ca^2+) with final concentrations of 2 μM were mixed with the PARylated PARP1C substrate, followed by incubation for 1 h in 37 °C. Reactions then were stopped by adding 4× SDS-loading dye (Bio-Rad) and visualized by Coomassie blue staining of SDS-polyacrylamide gels.

[5] = ARH3^D314A, 5 mM Mg^2+, 25 °C, pH 7.5
[6] = ARH3^D77A, 5 mM Mg^2+, 25 °C, pH 7.5

Which results are given for `Nc1ncnc2c1ncn2[C@@H]1O[C@H](COP(=O)(O)OP(=O)(O)OC[C@H]2OC(O)[C@H](O)[C@@H]2O)[C@@H](O)[C@H]1O` (stereo partly shown) [ADPR, ADP-ribose]?
decrease in ADPR-binding affinity compared with ARH3^WT ([1]; ARH3^D314A versus ARH3^WT, Mg^2+): 44 fold; Kd [1, 5]: 62.9 ± 2.9 µM; N (sites) [1, 5]: 0.96 ± 0.04 sites; ΔG [1, 5]: -5.74 kcal/M; ΔH [1, 5]: -10.36 kcal/M; −TΔS [1, 5]: 4.61 kcal/M; Kd ([2]; 5 mM Ca^2+): 7.81 ± 0.51 µM; N (sites) ([2]; 5 mM Ca^2+): 1.18 ± 0.01 sites; ΔG ([2]; 5 mM Ca^2+): -6.96 kcal/M; ΔH ([2]; 5 mM Ca^2+): -5.71 kcal/M; −TΔS ([2]; 5 mM Ca^2+): -1.25 kcal/M; Kd ([2]; 5 mM EDTA (metal-free)): 80.7 ± 5.25 µM; N (sites) ([2]; 5 mM EDTA): 0.96 ± 0.08 sites; ΔG ([2]; 5 mM EDTA): -5.59 kcal/M; ΔH ([2]; 5 mM EDTA): -5.164 kcal/M; −TΔS ([2]; 5 mM EDTA): -0.42 kcal/M; Kd ([2]; 5 mM Mg^2+): 1.42 ± 0.07 µM; N (sites) ([2]; 5 mM Mg^2+): 1.12 ± 0.01 sites; ΔG ([2]; 5 mM Mg^2+): -7.98 kcal/M; ΔH ([2]; 5 mM Mg^2+): -9.29 kcal/M; −TΔS ([2]; 5 mM Mg^2+): 1.31 kcal/M; Kd ([2]; 5 mM Mn^2+): 0.83 ± 0.05 µM; N (sites) ([2]; 5 mM Mn^2+): 1.09 ± 0.01 sites; ΔG ([2]; 5 mM Mn^2+): -8.29 kcal/M; ΔH ([2]; 5 mM Mn^2+): -10.57 kcal/M; −TΔS ([2]; 5 mM Mn^2+): 2.28 kcal/M; reduction in ADPR-binding affinity with Ca^2+ compared with Mg^2+ ([2]; KD^Ca versus KD^Mg): about a sixfold reduction; increase in binding affinity with Mg^2+ versus metal-free enzyme (EDTA) ([2]; KD^Mg versus KD^EDTA): approximately 60 fold; increase in ADPR-binding affinity compared with ARH3^WT ([3]; ARH3^D77A versus ARH3^WT, Mg^2+): 23 fold; Kd [3, 6]: 0.06 ± 0.01 µM; N (sites) [3, 6]: 1.18 ± 0.01 sites; ΔG [3, 6]: -9.87 kcal/M; ΔH [3, 6]: -8.50 kcal/M; −TΔS [3, 6]: -1.37 kcal/M

How did the “effect on PAR hydrolysis by ARH3” value [4] turn out when `[Ca+2].[Cl-].[Cl-]` [Ca^2+, CaCl2] was run?
The value was “inhibit; also recorded: effectively suppresses PAR hydrolysis”.

And the “Ca2+-dependent inhibition of ARH3 PAR hydrolysis activity” value ([4]; in the presence of Mg2+ and increasing concentrations of Ca2+, 5 mM Ca2+)?
Its value is “sufficient to effectively inhibit ARH3 activity”.

How did the “effect on PAR hydrolysis by ARH3” value [4] turn out when `O=C(O)CN(CCN(CC(=O)O)CC(=O)O)CC(=O)O` [EDTA] was run?
Its value is “inhibit; also recorded: effectively suppresses PAR hydrolysis”.
